{"source": "patent US20230008317A1", "about": "“Z-STILBENE AMPK ACTIVATOR COMPOUNDS, COMPOSITIONS, METHODS AND USES THEREOF” (SOCIETE DES PRODUITS NESTLE S.A., priority 2019, published 2023)", "key": {"[1]": {"target": "T1, AMPKα2β1γ1 (Homo sapiens, UniProt P54619+P54646+Q9Y478)", "T1 construct": "His; made in house", "T1 sequence (P54646 whole entry)": "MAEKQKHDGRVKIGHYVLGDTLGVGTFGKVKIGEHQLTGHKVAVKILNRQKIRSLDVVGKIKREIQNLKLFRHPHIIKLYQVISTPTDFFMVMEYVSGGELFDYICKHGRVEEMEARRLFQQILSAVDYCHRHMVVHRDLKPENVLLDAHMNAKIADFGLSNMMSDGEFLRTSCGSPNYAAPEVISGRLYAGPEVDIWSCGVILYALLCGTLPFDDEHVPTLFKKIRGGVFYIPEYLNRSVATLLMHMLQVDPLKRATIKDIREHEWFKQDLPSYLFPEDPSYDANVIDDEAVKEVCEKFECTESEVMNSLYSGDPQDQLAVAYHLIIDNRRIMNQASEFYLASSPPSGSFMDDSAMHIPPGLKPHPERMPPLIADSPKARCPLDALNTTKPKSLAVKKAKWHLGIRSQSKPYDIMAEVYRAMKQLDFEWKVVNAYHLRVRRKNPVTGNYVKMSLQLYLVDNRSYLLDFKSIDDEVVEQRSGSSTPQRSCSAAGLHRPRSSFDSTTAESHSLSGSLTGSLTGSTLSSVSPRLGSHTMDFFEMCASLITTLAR", "T1 sequence (Q9Y478 whole entry)": "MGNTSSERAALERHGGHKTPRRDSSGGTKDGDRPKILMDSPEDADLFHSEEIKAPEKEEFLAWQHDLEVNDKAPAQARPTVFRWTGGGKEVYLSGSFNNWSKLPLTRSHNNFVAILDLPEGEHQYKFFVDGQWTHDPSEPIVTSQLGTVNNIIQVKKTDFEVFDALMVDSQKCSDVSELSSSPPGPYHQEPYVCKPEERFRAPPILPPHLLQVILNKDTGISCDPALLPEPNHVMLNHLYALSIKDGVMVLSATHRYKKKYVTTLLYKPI", "T1 sequence (P54619 whole entry)": "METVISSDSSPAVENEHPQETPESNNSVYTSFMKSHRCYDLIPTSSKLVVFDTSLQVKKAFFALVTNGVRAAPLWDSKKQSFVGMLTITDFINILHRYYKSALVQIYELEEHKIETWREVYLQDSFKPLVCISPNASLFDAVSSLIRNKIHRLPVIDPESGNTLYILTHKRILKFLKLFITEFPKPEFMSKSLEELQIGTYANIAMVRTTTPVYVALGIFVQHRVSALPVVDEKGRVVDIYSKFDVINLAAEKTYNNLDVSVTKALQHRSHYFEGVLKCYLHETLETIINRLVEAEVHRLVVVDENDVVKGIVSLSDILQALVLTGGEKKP", "assay": "HTRF KinEASE activation assay with bacterially-expressed, phosphorylated purified AMPKα2β1γ1 complex", "type": "biochemical", "details": "varying concentrations, 30 mins incubation, cell-free; FIG. 1", "protocol": "Varying concentrations of compound 1 was incubated with phosphorylated purified AMPK α2β1γ1 for 30 mins. AMPK activity was determined using the HTRF KinEASE assay kit and results are presented as the ratio of 665/620 nm (STK1 phosphorylation).\nThe AMPKα2β1γ1 complex was expressed in bacteria and purified through the His-α subunit by nickel purification, purified through gel filtration and phosphorylated by incubation with CaMKKβ, and then further purified through a final gel filtration purification step. Phosphorylated purified AMPK was incubated with varying concentrations of ligand for 30 mins along with substrate and reagents from the HTRF-KinEASE Cisbio assay kit (STK S1 Kit). Phosphorylation of the substrate was measured by incubating with donor and acceptor antibodies for 2 h at room temperature as per the manufacturer's protocol (and Coulerie et al., (2016), see below) and phosphorylated peptide detected by performing HTRF."}, "[2]": {"tested_on": "U-2 OS Flp-In T-REx cells (phosphorylation of acetyl-CoA carboxylase, ACC)", "assay": "pACC HTRF assay: phosphorylation of the AMPK substrate ACC in U-2 OS Flp-In T-REx cells", "type": "cell-based", "details": "varying concentrations, 30 mins at 37 C, media lacking FBS; FIG. 2", "protocol": "U-2 OS cells were treated with varying concentrations of compound 1 for 30 mins at 37 C. Phosphorylation of ACC was assessed using the HTRF Cisbio (pACC kit).\nU-2 OS Flp-In T-REx cells were seeded at 50 K in a 96-well plate and left overnight at 37 C in DMEM GlutaMAX (Thermo Fisher Scientific) supplemented with 10% (vol/vol) FBS and 100 U/ml penicillin G, and 100 μg/ml streptomycin. Cells were treated for 30 mins with varying concentrations of compound 1 in media lacking FBS and then cells were lysed in 50 μl of Cisbio lysis buffer #1 supplemented with blocking solution as per the manufacturer's protocol (Cisbio). Cells were lysed for 30 mins at room temperature before 16 μl of lysate was incubated with 4 μl of the HTRF antibodies (1:40 dilution of the acceptor and donor (p)ACC antibodies, as per the manufacturers protocol). Lysates were incubated overnight with the antibodies before 665 nm/620 nm ratio was determined using a MolecularDevices i3 plate reader (with a HTRF cartridge add-on). The results are plotted as fold activation compared to the respective AMPK complex without any compound."}}, "data": [{"smiles": "COc1cc(O)cc(/C=C\\c2cccc(O)c2)c1", "note": "[compound 1, (Z)-3,3′-Dihydroxy-5-methoxystilbene]", "values": [{"measurement": "AMPK activity (STK1 substrate phosphorylation, 665 nm/620 nm ratio)", "setting": "[1]", "value": "allosterically activates AMPKα2β1γ1"}, {"measurement": "Phosphorylation of ACC (fold activation relative to untreated cells)", "setting": "[2]", "value": "increased the phosphorylation of the AMPK substrate, ACC, in a dose-dependent manner"}]}]}
